From patent publication US20120171126A1, “NOVEL [3,2-c] HETEROARYL STEROIDS AS GLUCOCORTICOID RECEPTOR AGONISTS COMPOSITIONS AND USES THEREOF” (priority 2009, published 2012) come the findings set out here.

SMILES strings stand for the structures. Where two headings read alike, the source gives them in different places. Bounds are passed on as bounds.

This assay concerns IL-8. Briefly: Glucocorticoid transrepression assay, IL-8 inhibition (TR). The class given is cell-based. The following applies: Homo sapiens, NCl-H292 cells, TNFα 10 ng/ml; for Emax: read-out: IL-8 inhibition (TR) Emax % inhibition. Here is the method:
Human Lung epithelial cell line NCl-H292 cells were dissociated from stock flask using 0.05% trypsin/0.53 mM EDTA. Cells were suspended in complete medium and counted. Cells were plated in 96-well flat-bottom plates at 20K cells /well in 0.2 ml/well. Plates were incubated for 24-48 hours until cells were between 75-90% confluent. Medium was aspirated and replaced with medium containing various concentrations of steroids or antagonists. After 1 hour incubation at 37°, TNFα (10 ng/ml final concentration in 0.2 ml) was added and the cells incubated overnight. Control wells with and without TNF were included on each plate, as well as wells with TNF in addition to a maximum (10 μM) concentration of dexamethasone. The cell culture medium was sampled and IL-6 and IL-8 cytokine production was measured using the MSD Multi-Spot immunoassay.

Broadly, the IC50 is the concentration that inhibits the measured activity by half. High values mean weaker potency in that assay, low ones greater potency in that assay. By Emax is commonly meant the size of the effect at its maximum, as opposed to the concentration needed. For `CC12Cc3cnn(-c4ccc(F)cc4)c3C=C1CCC1C2[C@@H](O)CC2(C)C1CC[C@]2(O)C(=O)NCc1ccccc1` (some centres unmarked) [Compound 3], under “Table 2”, the concentration for half-maximal inhibition (IC50) lay in the range of 0.06 to 20 nM and the Emax was greater than 80%.
Turning to `CC12Cc3cnn(-c4ccc(F)cc4)c3C=C1CCC1C2[C@@H](O)CC2(C)C1CC[C@]2(O)C(=O)CSc1nc2ccc(N)cc2s1` (some centres unmarked) [Compound 102], where the note is “Table 1”, the 50% inhibitory concentration (IC50) was 0.06 to 20 nM and the Emax is greater than 80%.
Regarding `Cn1ncc2c1C=C1CCC3C([C@@H](O)CC4(C)C3CC[C@]4(O)C(=O)CSc3nc4cccnc4s3)C1(C)C2` (some centres unmarked) [Compound 28], the maximum response (Emax) (Table 1) was less than 60%.
For `C[C@@H](NC(=O)[C@@]1(O)CCC2C3CCC4=Cc5c(cnn5-c5ccc(F)cc5)C[C@]4(C)C3[C@@H](O)C[C@@]21C)c1ccccc1` (some centres unmarked) [Compound 6], for the setting “Table 2”, the IC50 is 0.06 to 20 nM and the maximal effect (Emax) is greater than 80%.
`COc1ccc2sc(SCC(=O)[C@@]3(O)CCC4C5CCC6=Cc7c(cnn7-c7ccccn7)CC6(C)C5[C@@H](O)CC43C)nc2c1` (some centres unmarked) [Compound 39]: where the note is “Table 1”, the maximal effect (Emax) is less than 60%.
`CC12Cc3cnn(-c4ccc(F)cc4)c3C=C1CCC1C2[C@@H](O)CC2(C)C1CC[C@]2(O)C(=O)CSc1ncccn1` (some centres unmarked) [Compound 7]: for the setting “Table 1”, the IC50 was in the range of 0.06 to 20 nM and the Emax was greater than 80%.
Consider `CC12Cc3cnn(C(C)(C)C)c3C=C1CCC1C2[C@@H](O)CC2(C)C1CC[C@]2(O)C(=O)CSc1nc2ncccc2o1` (some centres unmarked) [Compound 65], for which the maximal response (Emax) (Table 1) was less than 60%.
As for `C[C@@H](NC(=O)[C@@]1(O)CCC2C3CCC4=Cc5c(cnn5-c5ccc(F)cc5)C[C@]4(C)C3[C@@H](O)C[C@@]21C)c1ccccn1` (some centres unmarked) [Compound 9], where the note is “Table 2”, the IC50 was in the range of 0.06 to 20 nM and the maximal effect (Emax) was greater than 80%.
In the case of `CC12Cc3cnn(-c4ccc(F)cc4)c3C=C1CCC1C2[C@@H](O)CC2(C)C1CC[C@]2(O)C(=O)NCc1cn(Cc2ccccc2)nn1` (some centres unmarked) [Compound 14], where the note is “Table 2”, the IC50 lay in the range of 0.06 to 20 nM and the Emax is greater than 80%.
For `C[C@@H](NC(=O)[C@@]1(O)CCC2C3CCC4=Cc5c(cnn5-c5ccc(F)cc5)C[C@]4(C)C3[C@@H](O)C[C@@]21C)c1cccc2ccccc12` (some centres unmarked) [Compound 7], under “Table 2”, the IC50 is 0.06 to 20 nM and the maximal response (Emax) was greater than 80%.
As for `CC12Cc3cnn(-c4ccc(F)cc4)c3C=C1CCC1C2[C@@H](O)CC2(C)C1CC[C@]2(OC(=O)c1ccco1)C(=O)CSc1nc2ncccc2o1` (some centres unmarked) [Compound 99], for the setting “Table 1”, the IC50 fell in the range of 0.06 to 20 nM and the maximum response (Emax) is greater than 80%.
In the case of `Cn1ncc2c1C=C1CCC3C([C@@H](O)CC4(C)C3CC[C@]4(O)C(=O)CSc3nc4ccccc4s3)C1(C)C2` (some centres unmarked) [Compound 21], the maximal response (Emax) (Table 1) is less than 60%.
Turning to `CC12Cc3cnn(-c4ccccn4)c3C=C1CCC1C2[C@@H](O)CC2(C)C1CC[C@]2(O)C(=O)CSc1nc2ccccc2s1` (some centres unmarked) [Compound 35], under “Table 1”, the half-maximal inhibitory concentration (IC50) fell in the range of 66 to 400 nM and the maximum response (Emax) was 60 to 70%.
Take `Cc1ccccc1-n1ncc2c1C=C1CCC3C([C@@H](O)CC4(C)C3CC[C@]4(O)C(=O)CSc3nc4ccccc4[nH]3)C1(C)C2` (some centres unmarked) [Compound 82]: the maximum response (Emax) (Table 1) is less than 60%.
For `Cn1ncc2c1C=C1CCC3C([C@@H](O)CC4(C)C3CC[C@]4(O)C(=O)CSc3ccccn3)C1(C)C2` (some centres unmarked) [Compound 32], the maximal response (Emax) (Table 1) was less than 60%.
Regarding `CC(C)(C)c1ccc(-n2ncc3c2C=C2CCC4C([C@@H](O)CC5(C)C4CC[C@]5(O)C(=O)CSc4nc5cccnc5s4)C2(C)C3)cc1` (some centres unmarked) [Compound 92], the Emax (Table 1) was less than 60%.
On to `CC(NC(=O)[C@@]1(O)CCC2C3CCC4=Cc5c(cnn5-c5ccc(F)cc5)CC4(C)C3[C@@H](O)CC21C)c1nc2ccccc2s1` (some centres unmarked) [Compound 23], for which, where the note is “Table 2”, the IC50 was in the range of 0.06 to 20 nM and the Emax is greater than 80%.
`CC12Cc3cnn(-c4ccccn4)c3C=C1CCC1C2[C@@H](O)CC2(C)C1CC[C@]2(O)C(=O)CSc1nc2ccccc2[nH]1` (some centres unmarked) [Compound 38]: under “Table 1”, the IC50 was 401 to 1000 nM and the Emax was in the range of 60 to 70%.
Regarding `Cc1ccnc(SCC(=O)[C@@]2(O)CCC3C4CCC5=Cc6c(cnn6-c6ccccn6)CC5(C)C4[C@@H](O)CC32C)n1` (some centres unmarked) [Compound 45], under “Table 1”, the half-maximal inhibitory concentration (IC50) fell in the range of 21 to 65 nM and the maximal effect (Emax) is greater than 80%.
Turning to `Cc1ccccc1-n1ncc2c1C=C1CCC3C([C@@H](O)CC4(C)C3CC[C@]4(O)C(=O)CSc3nc4ccccc4s3)C1(C)C2` (some centres unmarked) [Compound 76], where the note is “Table 1”, the Emax was less than 60%.
For the compound `COc1ccc(-n2ncc3c2C=C2CCC4C([C@@H](O)CC5(C)C4CC[C@]5(O)C(=O)CSc4ccc5ccccc5n4)C2(C)C3)cc1` (some centres unmarked) [Compound 89], the Emax (Table 1) is less than 60%.
As to `CC12Cc3cnn(-c4ccc(F)cc4)c3C=C1CCC1C2[C@@H](O)CC2(C)C1CC[C@]2(O)C(=O)Nc1nc2ccccc2s1` (some centres unmarked) [Compound 2], under “Table 2”, the half-inhibitory concentration (IC50) fell in the range of 0.06 to 20 nM and the maximal response (Emax) is greater than 80%.
For `CC12Cc3cnn(-c4ccccc4)c3C=C1CCC1C2[C@@H](O)CC2(C)C1CC[C@]2(O)C(=O)CSc1ccc2ccccc2n1` (some centres unmarked) [Compound 15], under “Table 1”, the IC50 fell in the range of 0.06 to 20 nM and the Emax is greater than 80%.
As for `CC12Cc3cnn(-c4ccc(F)cc4)c3C=C1CCC1C2[C@@H](O)CC2(C)C1CC[C@]2(O)C(=O)Nc1nc2cccnc2s1` (some centres unmarked) [Compound 1], under “Table 2”, the concentration for half-maximal inhibition (IC50) lay in the range of 0.06 to 20 nM and the Emax is greater than 80%.
`Cn1c(SCC(=O)[C@@]2(O)CCC3C4CCC5=Cc6c(cnn6-c6ccccc6)CC5(C)C4[C@@H](O)CC32C)nc2ccccc21` (some centres unmarked) [Compound 14]: where the note is “Table 1”, the IC50 was 0.06 to 20 nM and the maximal effect (Emax) is greater than 80%.
For the compound `CC12Cc3cnn(-c4ccc(F)cc4)c3C=C1CCC1C2[C@@H](O)CC2(C)C1CC[C@]2(O)C(=O)N[C@H](CO)CCc1ccccc1` (some centres unmarked) [Compound 19], under “Table 2”, the IC50 lay within 0.06 to 20 nM and the Emax is greater than 80%.
For `CC12Cc3cnn(CCC#N)c3C=C1CCC1C2[C@@H](O)CC2(C)C1CC[C@]2(O)C(=O)CSc1cnc2ccccc2n1` (some centres unmarked) [Compound 58], where the note is “Table 1”, the maximal response (Emax) was less than 60%.
Take `Cn1ncc2c1C=C1CCC3C([C@@H](O)CC4(C)C3CC[C@]4(O)C(=O)CSc3nc4ccccc4n3C)C1(C)C2` (some centres unmarked) [Compound 20]: for the setting “Table 1”, the IC50 is 66 to 400 nM and the Emax fell in the range of 60 to 70%.
For `CC12Cc3cnn(C4CCOCC4)c3C=C1CCC1C2[C@@H](O)CC2(C)C1CC[C@]2(O)C(=O)CSc1ccccn1` (some centres unmarked) [Compound 73], under “Table 1”, the concentration for half-maximal inhibition (IC50) lay in the range of 0.06 to 20 nM and the maximum response (Emax) is greater than 80%.
Regarding `CC12Cc3cnn(-c4ccccc4)c3C=C1CCC1C2[C@@H](O)CC2(C)C1CC[C@]2(O)C(=O)COc1nc2ccccc2s1` (some centres unmarked) [Compound 120], where the note is “Table 1”, the concentration for half-maximal inhibition (IC50) fell in the range of 0.06 to 20 nM and the Emax was greater than 80%.
With `Cn1ncc2c1C=C1CCC3C([C@@H](O)CC4(C)C3CC[C@]4(O)C(=O)CSc3nc4ccccc4[nH]3)C1(C)C2` (some centres unmarked) [Compound 24], for the setting “Table 1”, the IC50 lay within 66 to 400 nM and the Emax is 70 to 80%.
Consider `CC12Cc3cnn(-c4ccccn4)c3C=C1CCC1C2[C@@H](O)CC2(C)C1CC[C@]2(O)C(=O)CSc1cnc2ccccc2n1` (some centres unmarked) [Compound 44], for which, for the setting “Table 1”, the IC50 was 401 to 1000 nM and the Emax was less than 60%.
In the case of `C#CCNC(=O)[C@@]1(O)CCC2C3CCC4=Cc5c(cnn5-c5ccc(F)cc5)C[C@]4(C)C3[C@@H](O)C[C@@]21C` (some centres unmarked) [Compound 5], where the note is “Table 2”, the IC50 fell in the range of 0.06 to 20 nM and the Emax was greater than 80%.
For the compound `CC12Cc3cnn(-c4ccc(F)cc4)c3C=C1CCC1C2[C@@H](O)CC2(C)C1CC[C@]2(O)C(=O)CC#N` (some centres unmarked) [Compound 9], where the note is “Table 1”, the IC50 was in the range of 0.06 to 20 nM and the maximal response (Emax) is greater than 80%.
In the case of `CC12Cc3cnn(-c4ccc(F)cc4)c3C=C1CCC1C2[C@@H](O)CC2(C)C1CC[C@]2(O)C(=O)CSc1nccc2ccccc12` (some centres unmarked) [Compound 11], under “Table 1”, the IC50 lay within 0.06 to 20 nM and the maximal effect (Emax) was greater than 80%.
For the compound `Cc1ccnc(SCC(=O)[C@@]2(O)CCC3C4CCC5=Cc6c(cnn6C)CC5(C)C4[C@@H](O)CC32C)n1` (some centres unmarked) [Compound 31], the maximal effect (Emax) (Table 1) was less than 60%.
Take `Cc1ccccc1-n1ncc2c1C=C1CCC3C([C@@H](O)CC4(C)C3CC[C@]4(O)C(=O)CSc3ccccn3)C1(C)C2` (some centres unmarked) [Compound 80]: the Emax (Table 1) is less than 60%.
Turning to `CC12Cc3cnn(C4CCOCC4)c3C=C1CCC1C2[C@@H](O)CC2(C)C1CC[C@]2(O)C(=O)CSc1nc2ccccc2s1` (some centres unmarked) [Compound 69], for the setting “Table 1”, the IC50 fell in the range of 66 to 400 nM and the maximal effect (Emax) lay in the range of 70 to 80%.
For the compound `C[C@]12Cc3cnn(-c4ccc(F)cc4)c3C=C1CCC1C2[C@@H](O)C[C@@]2(C)C1CC[C@]2(O)C(=O)CN1CCN(c2ccccn2)CC1` (some centres unmarked) [Compound 3], under “Table 5”, the half-inhibitory concentration (IC50) lay in the range of 0.06 to 20 nM and the Emax is greater than 80%.
With `Cc1cccc(SCC(=O)[C@@]2(O)CCC3C4CCC5=Cc6c(cnn6C)CC5(C)C4[C@@H](O)CC32C)n1` (some centres unmarked) [Compound 33], where the note is “Table 1”, the IC50 lay within 66 to 400 nM and the Emax was less than 60%.
Consider `CC(C)(C)c1ccc(-n2ncc3c2C=C2CCC4C([C@@H](O)CC5(C)C4CC[C@]5(O)C(=O)CSc4nc5ccccc5s4)C2(C)C3)cc1` (some centres unmarked) [Compound 90], for which the maximum response (Emax) (Table 1) was less than 60%.
Turning to `C[C@]12Cc3cnn(-c4ccc(F)cc4)c3C=C1CCC1C2[C@@H](O)C[C@@]2(C)C1CC[C@]2(O)C(=O)CN1CCN(c2nc3ccccc3o2)CC1` (some centres unmarked) [Compound 1], under “Table 5”, the IC50 was in the range of 0.06 to 20 nM and the Emax was greater than 80%.
With `Cc1cccc(SCC(=O)[C@@]2(O)CCC3C4CCC5=Cc6c(cnn6-c6ccccn6)CC5(C)C4[C@@H](O)CC32C)n1` (some centres unmarked) [Compound 47], for the setting “Table 1”, the IC50 was in the range of 66 to 400 nM and the Emax is greater than 80%.
With `C#CCN1CCN(CC(=O)[C@@]2(O)CCC3C4CCC5=Cc6c(cnn6-c6ccc(F)cc6)C[C@]5(C)C4[C@@H](O)C[C@@]32C)CC1` (some centres unmarked) [Compound 2], the Emax (Table 5) is less than 60%.
